Legend:
crabgrass = assay: Test B pre/postemergence crabgrass; type: in vivo, Digitaria sanguinalis
Procedure, shortened: (§1)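 Herbicidal effect was estimated by eye on a ten-point control scale after plants spent twelve to sixteen days in a greenhouse following soil or foliar treatment. Foliar sprays targeted plants at one to four leaves; all doses were formulated in a non-phytotoxic solvent with surfactant.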

duck salad = assay: Test B flood test duck salad; type: in vivo, Heteranthera limosa
Procedure, shortened: (§2)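 Read-out is a visual response score from 0 (no effect) to 10 (complete control), assigned by comparison with untreated controls. Treatment was applied at the 2-leaf stage, and plants stayed in the greenhouse for twelve to sixteen days before scoring.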

bamyardgrass = assay: Test B flood test barnyardgrass; type: in vivo, Echinochloa crus-galli
Procedure, shortened: as §2

purple nutsedge = assay: Test B pre/postemergence purple nutsedge; type: in vivo, Cyperus rotundus
Procedure, shortened: as §1

[1] = Postemergence, Rate 62 g/ha, scale 0 to 10, 0 is no effect, 10 is complete control
[2] = Postemergence, Rate 250 g/ha, scale 0 to 10, 0 no effect, 10 complete control
[3] = Preemergence, Rate 62 g/ha, scale 0 to 10, 0 is no effect, 10 is complete control
[4] = Preemergence, Rate 125 g/ha, scale 0 to 10 (0 no effect, 10 complete control)
[5] = Preemergence, Rate 250 g/ha, scale of 0 to 10 where 0 is no effect and 10 is complete control
[6] = Preemergence, Rate 500 g/ha, scale 0 (no effect) to 10 (complete control)
[7] = Rate 125 g/ha, Postemergence, scale 0 to 10, 0 no effect, 10 complete control
[8] = Rate 500 g/ha, Postemergence, 0 to 10 scale (0 no effect, 10 complete control)
[9] = Rate 125 g/ha, Postemergence section (flood test species), scale 0 to 10, 0 no effect, 10 complete control
[10] = Rate 500 g/ha, Postemergence section of Table B, 0 to 10 scale (0 no effect, 10 complete control)
[11] = flood test, listed under Postemergence, Rate 250 g/ha, scale 0 to 10, 0 no effect, 10 complete control
[12] = Rate 500 g/ha, Postemergence, scale 0 to 10, 0 no effect, 10 complete control
[13] = Rate 500 g/ha, listed under Postemergence (flood test species), scale 0 to 10, 0 no effect, 10 complete control

CC(C)Oc1cc(-n2c(=O)on(C(=O)N(c3ccc(F)cc3)C(C)C)c2=O)c(Cl)cc1Cl [Compound 43]
0: Plant response rating, Crabgrass (crabgrass; [3]) | Plant response rating, Crabgrass (crabgrass; [4]) | Plant response rating, Crabgrass (crabgrass; [5]) | Crabgrass plant response rating (crabgrass; [6]) | Ducksalad plant response rating (duck salad; [1]) | Ducksalad plant response rating (duck salad; [9]) | Ducksalad plant response rating (duck salad; [10]) | Ducksalad plant response rating (duck salad; [11]) | Barnyardgrass plant response rating (bamyardgrass; [1]) | Barnyardgrass plant response rating (bamyardgrass; [9]) | Barnyardgrass plant response rating (bamyardgrass; [10]) | Barnyardgrass plant response rating (bamyardgrass; [11]) | Nutsedge plant response rating (purple nutsedge; [1]) | Nutsedge plant response rating (purple nutsedge; [2]) | Plant response rating, Nutsedge (purple nutsedge; [3]) | Plant response rating, Nutsedge (purple nutsedge; [4]) | Plant response rating, Nutsedge (purple nutsedge; [5]) | Nutsedge plant response rating (purple nutsedge; [6]) | Nutsedge plant response rating (purple nutsedge; [7]) | Nutsedge plant response rating (purple nutsedge; [8])
1: Crabgrass plant response rating (crabgrass; [1])
2: Crabgrass plant response rating (crabgrass; [2]) | Crabgrass plant response rating (crabgrass; [7]) | Crabgrass plant response rating (crabgrass; [8])

CCc1ccccc1-n1c(=O)on(C(=O)N(c2ccc(F)cc2F)C(C)C)c1=O [Compound 45]
3: Crabgrass plant response rating (crabgrass; [8])
1: Plant response rating, Crabgrass (crabgrass; [4]) | Plant response rating, Crabgrass (crabgrass; [5])
0: Crabgrass plant response rating (crabgrass; [1]) | Plant response rating, Crabgrass (crabgrass; [3]) | Crabgrass plant response rating (crabgrass; [7]) | Ducksalad plant response rating (duck salad; [1]) | Ducksalad plant response rating (duck salad; [9]) | Ducksalad plant response rating (duck salad; [10]) | Ducksalad plant response rating (duck salad; [11]) | Barnyardgrass plant response rating (bamyardgrass; [1]) | Barnyardgrass plant response rating (bamyardgrass; [9]) | Barnyardgrass plant response rating (bamyardgrass; [10]) | Barnyardgrass plant response rating (bamyardgrass; [11]) | Nutsedge plant response rating (purple nutsedge; [1]) | Nutsedge plant response rating (purple nutsedge; [2]) | Plant response rating, Nutsedge (purple nutsedge; [3]) | Plant response rating, Nutsedge (purple nutsedge; [4]) | Plant response rating, Nutsedge (purple nutsedge; [5]) | Nutsedge plant response rating (purple nutsedge; [6]) | Nutsedge plant response rating (purple nutsedge; [7]) | Nutsedge plant response rating (purple nutsedge; [8])
9: Crabgrass plant response rating (crabgrass; [6])
2: Crabgrass plant response rating (crabgrass; [2])

Cc1ccccc1-n1c(=O)on(C(=O)N(c2ccc(C#N)cc2)C(C)C)c1=O [Compound 51]
2: Plant response rating, Crabgrass (crabgrass; [5]) | Crabgrass plant response rating (crabgrass; [6])
3: Crabgrass plant response rating (crabgrass; [2])
0: Crabgrass plant response rating (crabgrass; [1]) | Plant response rating, Crabgrass (crabgrass; [3]) | Plant response rating, Crabgrass (crabgrass; [4]) | Crabgrass plant response rating (crabgrass; [7]) | Ducksalad plant response rating (duck salad; [1]) | Ducksalad plant response rating (duck salad; [9]) | Ducksalad plant response rating (duck salad; [13]) | Ducksalad plant response rating (duck salad; [11]) | Barnyardgrass plant response rating (bamyardgrass; [1]) | Barnyardgrass plant response rating (bamyardgrass; [9]) | Barnyardgrass plant response rating (bamyardgrass; [13]) | Barnyardgrass plant response rating (bamyardgrass; [11]) | Nutsedge plant response rating (purple nutsedge; [1]) | Nutsedge plant response rating (purple nutsedge; [2]) | Plant response rating, Nutsedge (purple nutsedge; [3]) | Plant response rating, Nutsedge (purple nutsedge; [4]) | Plant response rating, Nutsedge (purple nutsedge; [5]) | Nutsedge plant response rating (purple nutsedge; [6]) | Nutsedge plant response rating (purple nutsedge; [7]) | Nutsedge plant response rating (purple nutsedge; [12])
4: Crabgrass plant response rating (crabgrass; [12])

Source: patent US6737383B1, “Herbicidal oxadiazolidines” (priority 1999, dated 2004)
